From US10426761B2, “Method for treatment of disease caused or aggravated by microorganisms or relieving symptoms thereof” (ARMS Pharmaceutical LLC, priority 2011, dated 2019)

Columns and labels:
[1] = tested on: F. nucleatum; test: MIC, CLSI reference method; assay type: cell-based, Fusobacterium nucleatum; conditions: 24 h
Protocol: (§1) Cells were allowed to grow in the presence or absence (growth control) of the test agents for 24 hours. The MIC for each agent was defined as the concentration that induced a 100% growth inhibition (compared to no-drug control).

[2] = tested on: P. gingivalis; test: MIC, CLSI reference method; assay type: cell-based; conditions: 24 h
Protocol: as §1

[3] = tested on: S. mitis; test: MIC, CLSI reference method; assay type: cell-based; conditions: 24 h
Protocol: as §1

[4] = tested on: S. mutans; test: MIC, CLSI reference method; assay type: cell-based; conditions: 24 h
Protocol: as §1

[5] = tested on: S. oralis; test: MIC, CLSI reference method; assay type: cell-based; conditions: 24 h
Protocol: as §1

[6] = tested on: S. pneumonia; test: MIC, CLSI reference method; assay type: cell-based; conditions: 24 h
Protocol: as §1

[7] = tested on: S. pyogenes; test: MIC, CLSI reference method; assay type: cell-based; conditions: 24 h
Protocol: as §1

[8] = tested on: S. salivarius; test: MIC, CLSI reference method; assay type: cell-based; conditions: 24 h, 100% growth inhibition
Protocol: as §1

[9] = tested on: Y. enterocolitica; test: MIC, CLSI reference method; assay type: cell-based; conditions: 24 h
Protocol: as §1

[10] = tested on: C. albicans; test: MIC, CLSI microdilution (Candida); assay type: cell-based
[11] = tested on: C. krusei; test: MIC, CLSI microdilution (Candida); assay type: cell-based
[12] = tested on: C. tropicalis; test: MIC, CLSI microdilution (Candida); assay type: cell-based
[13] = tested on: C. glabrata; test: MIC, CLSI microdilution (Candida); assay type: cell-based
[14] = tested on: Streptococcus salivarius, Candida albicans; test: in vitro filter insert-based barrier model (glycerin / xanthan gum)
Protocol: To identify further examples of concentrations of glycerin and xanthan gum that can form a barrier effective in preventing the passage of microorganisms, different concentrations of the gum xanthan gum and humectant glycerin were tested (5%-95% glycerin; 0.005%-0.5% xanthan gum) singly and in combination using an in vitro filter insert-based barrier model. […] Glycerin or xanthan gum or their combinations (100 μL aliquots) were overlaid on the surface of the filter to form a barrier. […] Next, 5×10^4 cells of either bacteria or fungi were applied on top of the formed barrier in the filter inserts. Next, we placed these filter inserts on the surface of agar medium (Brain Heart Infusion (BHI) medium for bacteria, Sabouraud Dextrose (SD) medium for fungi) in 6-well plates. The plates along with the filter inserts were incubated overnight for 24 hours at 37° C. The plates were monitored for the presence of bacterial or fungal growth CFUs (colony forming units) in the agar medium as well as in the filter insert.

Structure (SMILES)	MIC [1] [μg/mL chlorhexidine]	MIC [2] [μg/mL chlorhexidine]	MIC [3] [μg/mL chlorhexidine]	MIC [4] [μg/mL chlorhexidine]	MIC [5] [μg/mL chlorhexidine]	MIC [6] [μg/mL chlorhexidine]	MIC [7] [μg/mL chlorhexidine]	MIC [8] [μg/mL chlorhexidine]	MIC [9] [μg/mL chlorhexidine]	MIC [10] [μg/mL chlorhexidine]	MIC [11] [μg/mL chlorhexidine]	MIC [12] [μg/mL chlorhexidine]	MIC [13] [μg/mL chlorhexidine]	concentration at which a barrier was formed when tested alone [14]
[H]/N=C(\N/C(=N/[H])NCCCCCCNC(=N)NC(=N)Nc1ccc(Cl)cc1)Nc1ccc(Cl)cc1 [Chlorhexidine, chlorhexidine gluconate]	19.6	19.6	19.6	19.6	19.6	19.6	19.6	19.6	19.6	19.6	19.6	19.6	19.6	–
OCC(O)CO [glycerin]	–	–	–	–	–	–	–	–	–	–	–	–	–	greater than or equal to 55%
